Measurements: patent publication US11230526B1, “Cylcoalkenyl derivatives useful as agonists of the GPR120 and/or GPR40 receptors” (Janssen Pharmaceutica NV, priority 2018, dated 2022)

Tests used:
Human GPR120 short form = biological target: T1, Human GPR120 short form (Homo sapiens, UniProt Q5NUL3); experiment: Human GPR120 calcium flux assay, Procedure Calcium B (4200 cells/well); format: cell-based
T1 construct: expressed in transfected cells
T1 sequence (Q5NUL3 1-361): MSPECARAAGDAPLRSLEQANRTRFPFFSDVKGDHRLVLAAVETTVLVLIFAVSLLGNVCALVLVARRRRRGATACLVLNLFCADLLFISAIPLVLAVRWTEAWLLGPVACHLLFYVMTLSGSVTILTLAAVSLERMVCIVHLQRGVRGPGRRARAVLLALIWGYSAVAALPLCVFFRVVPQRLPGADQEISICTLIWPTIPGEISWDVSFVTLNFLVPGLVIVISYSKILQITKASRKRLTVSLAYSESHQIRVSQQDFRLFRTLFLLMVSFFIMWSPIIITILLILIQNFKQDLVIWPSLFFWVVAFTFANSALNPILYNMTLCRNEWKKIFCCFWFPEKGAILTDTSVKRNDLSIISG
Summary of the method: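 Agonist EC50 came from a four-parameter fit of RFU (Fmax−Fmin) read over 300 s on FLIPR. Cells were HEK293 stably transfected with human GPR120 (NM_001195755.1) at 4200 per well, serum-starved 1 h and loaded with Fluo-4 NW dye with probenecid before ligand addition.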

human GPR40 = biological target: T2, human GPR40 (Homo sapiens, UniProt O14842); experiment: GPR40 calcium flux assay, human GPR40; format: cell-based; conditions: HEK293 cells stably expressing GPR40; table does not say human or rat
T2 construct: expressed in transfected cells
Summary of the method: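 Cells preincubated 1 h at 37° C. in HBSS, 20 mM HEPES, 0.1% BSA, then Fluo 8 calcium dye 30 min at 37° C. and 15 min at room temperature.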

T2 sequence (O14842 whole entry): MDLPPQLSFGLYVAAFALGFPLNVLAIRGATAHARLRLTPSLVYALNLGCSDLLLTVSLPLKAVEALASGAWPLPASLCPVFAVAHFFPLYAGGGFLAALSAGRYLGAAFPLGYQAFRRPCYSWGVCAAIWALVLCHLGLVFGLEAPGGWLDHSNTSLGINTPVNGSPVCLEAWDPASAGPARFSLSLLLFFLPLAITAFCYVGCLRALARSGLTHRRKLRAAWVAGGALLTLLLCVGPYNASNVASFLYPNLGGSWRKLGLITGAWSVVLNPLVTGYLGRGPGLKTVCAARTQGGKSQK

Row | Structure (SMILES) | EC50 (Human GPR120 short form) [nM] | EC50 (human GPR40) [nM]
1 | Cc1ccc(C2=C(COc3ccc(CCC(=O)O)c(C(F)(F)F)c3)CCC2)c(F)c1 [Compound 283, 3-[4-[[2-(2-fluoro-4-methyl-phenyl)cyclopenten-1-yl]methoxy]-2-(trifluoromethyl)phenyl]Propanoic Acid] | 236 | 355
2 | O=C(O)CCc1ccc(OCC2=C(c3ccc(Cl)c(F)c3)CCC2)cc1C(F)(F)F [Compound 284, 3-[4-[[2-(4-chloro-3-fluoro-phenyl)cyclopenten-1-yl]methoxy]-2-(trifluoromethyl)phenyl]Propanoic Acid] | 442 | 101
3 | O=C(O)CCc1ccc(OCC2=C(c3ccc(Cl)cc3F)CCC2)cc1C(F)(F)F [Compound 285, 3-[4-[[2-(4-chloro-2-fluoro-phenyl)cyclopenten-1-yl]methoxy]-2-(trifluoromethyl)phenyl]Propanoic Acid] | 328 | 108
4 | Cc1cc(OCC2=C(c3ccc(Cl)cc3C)CCC2)c(F)cc1CCC(=O)O [Compound 286, 3-[4-[[2-(4-chloro-2-methyl-phenyl)cyclopenten-1-yl]methoxy]-5-fluoro-2-methyl-phenyl]Propanoic Acid] | 2900 | 245
5 | COc1ccc(C2=C(COc3ccc(CCC(=O)O)c(C(F)(F)F)c3)CCC2)c(C)c1 [Compound 287, 3-[4-[[2-(4-methoxy-2-methyl-phenyl)cyclopenten-1-yl]methoxy]-2-(trifluoromethyl)phenyl]Propanoic Acid] | > 5000 | 153
6 | COc1ccc(C2=C(COc3ccc(CCC(=O)O)c(Cl)c3)CCC2)cc1 [Compound 288, 3-[2-chloro-4-[[2-(4-methoxyphenyl)cyclopenten-1-yl]methoxy]phenyl]Propanoic Acid] | 847 | 1080
7 | Cc1cc(OCC2=C(c3ccc(Cl)cc3)CCC2)c(F)cc1CCC(=O)O [Compound 289, 3-[4-[[2-(4-chlorophenyl)cyclopenten-1-yl]methoxy]-5-fluoro-2-methyl-phenyl]Propanoic Acid] | 219 | 1010
8 | CCc1ccc(C2=C(COc3cc(C)c(CCC(=O)O)cc3F)CCC2)cc1 [Compound 290, 3-[4-[[2-(4-ethylphenyl)cyclopenten-1-yl]methoxy]-5-fluoro-2-methyl-phenyl]Propanoic Acid] | 418 | > 5000
9 | Cc1ccc(C2=C(COc3ccc(CCC(=O)O)c(C(F)(F)F)c3)CCC2)c(-c2ccccc2)c1 [Compound 291, 3-[4-[[2-(4-methyl-2-phenyl-phenyl)cyclopenten-1-yl]methoxy]-2-(trifluoromethyl)phenyl]Propanoic Acid] | > 5000 | 1420
10 | Cc1ccc(C2=C(COc3ccc(CCC(=O)O)c(C(F)(F)F)c3)CCC2)cc1-c1ccccc1 [Compound 292, 3-[4-[[2-(4-methyl-3-phenyl-phenyl)cyclopenten-1-yl]methoxy]-2-(trifluoromethyl)phenyl]Propanoic Acid] | > 5000 | 1720
11 | CCc1ccc(C2=C(COc3ccc(CCC(=O)O)c(Cl)c3)CCC2)cc1 [Compound 293, 3-[2-chloro-4-[[2-(4-ethylphenyl)cyclopenten-1-yl]methoxy]phenyl]Propanoic Acid] | 2180 | 4240
12 | CCc1ccc(C2=C(COc3ccc(CCC(=O)O)c(C(F)(F)F)c3)CCC2)cc1 [Compound 294, 3-[4-[[2-(4-ethylphenyl)cyclopenten-1-yl]methoxy]-2-(trifluoromethyl)phenyl]Propanoic Acid] | > 5000 | 3510
13 | O=C(O)CCc1ccc(OCC2=C(c3ccccc3Cl)CCC2)cc1Cl [Compound 295, 3-[2-chloro-4-[[2-(2-chlorophenyl)cyclopenten-1-yl]methoxy]phenyl]Propanoic Acid] | 1650 | 234
14 | Cc1ccc(C2=C(COc3ccc(CCC(=O)O)c(Cl)c3)CCC2)cc1F [Compound 296, 3-[2-chloro-4-[[2-(3-fluoro-4-methyl-phenyl)cyclopenten-1-yl]methoxy]phenyl]Propanoic Acid] | 157 | 1070
15 | O=C(O)CCc1ccc(OCC2=C(c3cccc(F)c3)CCC2)cc1Cl [Compound 297, 3-[2-chloro-4-[[2-(3-fluorophenyl)cyclopenten-1-yl]methoxy]phenyl]Propanoic Acid] | 422 | 588

Now from value to compound:

Row | EC50 (Human GPR120 short form) [nM] | EC50 (human GPR40) [nM] | Structure (SMILES)
16 | 1630 | 1590 | Cc1cccc(C2=C(COc3ccc(CCC(=O)O)c(Cl)c3)CCC2)c1 [Compound 298, 3-[2-chloro-4-[[2-(m-tolyl)cyclopenten-1-yl]methoxy]phenyl]Propanoic Acid]
17 | 251 | 661 | Cc1cc(OCC2=C(c3ccc(Br)cc3)CCC2)c(F)cc1CCC(=O)O [Compound 299, 3-[4-[[2-(4-bromophenyl)cyclopenten-1-yl]methoxy]-5-fluoro-2-methyl-phenyl]Propanoic Acid]
18 | 1550 | 197 | O=C(O)CCc1ccc(OCC2=C(c3ccc(C(F)(F)F)cc3)CCC2)cc1C(F)(F)F [Compound 300, 3-[2-(trifluoromethyl)-4-[[2-[4-(trifluoromethyl)phenyl]cyclopenten-1-yl]methoxy]phenyl]Propanoic Acid]
19 | 1530 | 448 | COc1ccc(C2=C(COc3ccc(CCC(=O)O)c(C(F)(F)F)c3)CCC2)cc1 [Compound 301, 3-[4-[[2-(4-methoxyphenyl)cyclopenten-1-yl]methoxy]-2-(trifluoromethyl)phenyl]Propanoic Acid]
20 | 160 | 952 | [2H]C([2H])([2H])c1ccc(C2=C(COc3ccc(CCC(=O)O)c(Cl)c3)CCC2)cc1 [Compound 302-D, 3-[2-chloro-4-[[2-[4-(trideuteriomethyl)phenyl]cyclopenten-1-yl]methoxy]phenyl]Propanoic Acid]
21 | 124 | 2370 | [2H]C([2H])([2H])c1ccc(C2=C(COc3cc(C)c(CCC(=O)O)cc3F)CCC2)cc1 [Compound 303-D, 3-[5-fluoro-2-methyl-4-[[2-[4-(trideuteriomethyl)phenyl]cyclopenten-1-yl]methoxy]phenyl]Propanoic Acid]
22 | 502 | 1110 | Cc1cc(OCC2=C(c3ccc(F)cc3)CCC2)c(F)cc1CCC(=O)O [Compound 304, 3-[5-fluoro-4-[[2-(4-fluorophenyl)cyclopenten-1-yl]methoxy]-2-methyl-phenyl]Propanoic Acid]
23 | 1120 | 347 | CC1CCC(COc2ccc(CCC(=O)O)c(C(F)(F)F)c2)=C1c1ccccc1 (stereo not shown) [Compound 306, 3-[4-[(3-methyl-2-phenyl-cyclopenten-1-yl)methoxy]-2-(trifluoromethyl)phenyl]Propanoic Acid]
24 | 288 | 516 | Cc1ccc(C2=C(COc3ccc(CCC(=O)O)c(C(F)(F)F)c3)CCC2)cc1 [Compound 307, 3-[4-[[2-(p-tolyl)cyclopenten-1-yl]methoxy]-2-(trifluoromethyl)phenyl]Propanoic Acid]
25 | > 5000 | 899 | O=C(O)CCc1ccc(OCC2=C(c3ccc(OC(F)(F)F)cc3)CCC2)cc1C(F)(F)F [Compound 308, 3-[4-[[2-[4-(trifluoromethoxy)phenyl]cyclopenten-1-yl]methoxy]-2-(trifluoromethyl)phenyl]Propanoic Acid]
26 | 209 | 1120 | Cc1ccc(C2=C(COc3ccc(CCC(=O)O)c(Cl)c3)CCC2)cc1 [Compound 310, 3-[2-chloro-4-[[2-(p-tolyl)cyclopenten-1-yl]methoxy]phenyl]Propanoic Acid]
27 | > 5000 | 792 | O=C(O)CCc1ccc(OCC2=C(c3ccc(OC(F)(F)F)cc3)CCC2)cc1Cl [Compound 311, 3-[2-chloro-4-[[2-[4-(trifluoromethoxy)phenyl]cyclopenten-1-yl]methoxy]phenyl]Propanoic Acid]
28 | 612 | 402 | Cc1cccc(C2=C(COc3ccc(CCC(=O)O)c(C(F)(F)F)c3)CCC2)c1 [Compound 312, 3-[4-[[2-(m-tolyl)cyclopenten-1-yl]methoxy]-2-(trifluoromethyl)phenyl]Propanoic Acid]
29 | 855 | 191 | O=C(O)CCc1ccc(OCC2=C(c3ccccc3Cl)CCC2)cc1C(F)(F)F [Compound 313, 3-[4-[[2-(2-chlorophenyl)cyclopenten-1-yl]methoxy]-2-(trifluoromethyl)phenyl]Propanoic Acid]
30 | 765 | 461 | Cc1cc(OCC2=C(Cc3ccccc3)CCC2)c(F)cc1CCC(=O)O [Compound 314, 3-[4-[(2-benzylcyclopenten-1-yl)methoxy]-5-fluoro-2-methyl-phenyl]Propanoic Acid]
31 | 185 | > 5000 | Cc1cc(CCC(=O)O)ccc1OCC1=C(Cc2ccccc2)CCC1 [Compound 315, 3-[4-[(2-benzylcyclopenten-1-yl)methoxy]-3-methyl-phenyl]Propanoic Acid]
32 | 2430 | 164 | CC1CCC(COc2ccc(CCC(=O)O)c(C(F)(F)F)c2)=C1c1ccc(Cl)cc1 (stereo not shown) [Compound 316, 3-[4-[[2-(4-chlorophenyl)-3-methyl-cyclopenten-1-yl]methoxy]-2-(trifluoromethyl)phenyl]Propanoic Acid]
